Experiment [1] concerns the target T1, Axl (Homo sapiens, UniProt P30530).
T1 sequence (P30530 26-894): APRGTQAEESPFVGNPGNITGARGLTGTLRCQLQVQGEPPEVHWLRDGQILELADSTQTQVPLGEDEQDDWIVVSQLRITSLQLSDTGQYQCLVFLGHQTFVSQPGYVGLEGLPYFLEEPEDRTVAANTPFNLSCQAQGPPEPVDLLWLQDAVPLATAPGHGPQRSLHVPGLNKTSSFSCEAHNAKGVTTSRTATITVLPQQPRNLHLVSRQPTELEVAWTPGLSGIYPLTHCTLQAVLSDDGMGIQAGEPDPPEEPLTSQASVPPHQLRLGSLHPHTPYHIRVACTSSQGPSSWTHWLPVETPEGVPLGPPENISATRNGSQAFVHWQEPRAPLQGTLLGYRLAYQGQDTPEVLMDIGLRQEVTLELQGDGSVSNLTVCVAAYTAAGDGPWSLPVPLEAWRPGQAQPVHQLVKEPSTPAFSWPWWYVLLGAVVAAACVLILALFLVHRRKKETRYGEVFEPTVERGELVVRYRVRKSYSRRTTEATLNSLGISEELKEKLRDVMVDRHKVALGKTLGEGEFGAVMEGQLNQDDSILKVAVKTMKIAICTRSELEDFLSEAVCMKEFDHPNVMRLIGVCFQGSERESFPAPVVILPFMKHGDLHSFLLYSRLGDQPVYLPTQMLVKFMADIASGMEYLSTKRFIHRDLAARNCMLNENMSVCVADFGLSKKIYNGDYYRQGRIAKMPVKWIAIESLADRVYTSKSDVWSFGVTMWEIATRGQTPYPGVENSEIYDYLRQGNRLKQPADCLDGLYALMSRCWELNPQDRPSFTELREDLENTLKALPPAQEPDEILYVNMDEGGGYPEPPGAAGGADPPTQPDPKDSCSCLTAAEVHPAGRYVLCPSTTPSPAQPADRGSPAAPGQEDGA
In words: Axl NanoBRET intracellular kinase assay (Cell Binding). Also noted: host or cells: HEK-293. The following applies: HEK-293 cells transfected with Axl-NanoLuc fusion vector; displacement of K-5 NanoBRET tracer. Here is the method: Axl NanoBRET™ intracellular kinase assay (Promega, N2540) was performed according to manufacturer's recommendation. In brief, HEK-293 cells are transiently transfected with Axl-NanoLuc fusion vector (Promega, NV1071), utilizing Fugene HD transfection reagent (Promega, E2311) a day before experiment following manufacturer's recommendation.
The day of the assay, the cells were collected and resuspended in Opti-MEM media (ThermoFisher, 31985070) at 2e5 cells/mL concentration. Testing compounds were serial diluted and dispensed into a white 384 well polystyrene plate at 200 nL in 100% DMSO. 40 μL of resuspended cells is then added per well for a final condition of 8K cells/well with 0.5% DMSO. After one-hour compound pre-incubation at 37° C. and 5% CO2, cells were further incubated with 0.35 μM K-5 NanoBRET tracer for two-hours at 37° C. and 5% CO2. […] of 3× substrate plus Inhibitor solution was prepared according to kits manual and added to the cells followed by a 30 second pulse centrifugation spin. The plate was then immediately read utilizing an Envision (Perkin Elmer) plate reader. The BRET signal is measured by taking the ratio of the emissions reading at 610 nm and 450 nm. Compound binding is based on the decrease BRET signal caused by the displacement of the K-5 tracer. […] IC50 value of compounds was determined by 4-parameter non-linear regression fitting of percent activity in GraphPad Prism software.
A general note: In BRET a luciferase serves as donor, and the signal depends on an acceptor being close.

Experiment [2] has as its target T1, Axl. As to the kind of experiment: HTRF KinEASE-TK biochemical potency, AXL. Also noted: purchased Invitrogen. The following applies: 5 nM AXL, 700 μM ATP. The procedure: (§1) Purified recombinant human AXL, TYRO3 and MER proteins were purchased from Invitrogen™. 10 nM AXL, 2 nM TYRO3 or MER were incubated with varying concentrations of compounds in 50 mM HEPES, pH 7.4, 10 mM MgCl2, 0.01% BSA, 1 mM DTT and 2% DMSO in a total volume of 20 μl in a 384-well microplate (Corning™ #3640) at RT for 1 h. The AXL, TYRO3 and MER enzymatic reaction was initiated by transferring 10 μl of enzyme and compound mixture into 10 μl of 1.6 μM TK Substrate-biotin (HTRF® KinEASE-TK kit, Cisbio) and 1400 μM ATP pre-incubated in 50 mM HEPES, pH 7.4, 10 mM MgCl2, 0.01% BSA, 1 mM DTT in a 384-well microplate (Corning™ #3640) at RT, giving the final reaction conditions: 5 nM AXL, 1 nM TYRO3 or MER, 800 nM TK Substrate-biotin and 700 μM ATP in 50 mM HEPES, pH 7.4, 10 mM MgCl2, 0.01% BSA, 1 mM DTT and 1% DMSO with varying concentrations of compounds. Following 2 h incubation at RT, the AXL, TYRO3 and MER enzymatic reaction was stopped by transfer of 10 μl of reaction into 10 μl of detection mix (400 nM Streptavidin-XL665, 200-fold dilution TK Antibody-Cryptate and detection buffer, HTRF® KinEASE-TK kit, Cisbio) in a white 384-well microplate (Perkin Elmer, OptiPlate 384). After 1 h incubation at RT, the plate was put into a plate reader (Evision) to read at 665/620 nm (acceptor/donor) for HTRF. The value of the DMSO blank (MIN inhibition=100% activity) was used as a negative control. The positive control was established by adding 5 μl of enzyme and DMSO mixture into 10 μl of detection mix followed by addition of 5 μl of TK Substrate-biotin and ATP mixture (MAX inhibition=0% activity). To calculate the percent activity, Equation 1 was used. Ratio665/620 is the value at a given compound concentration: […]

A further experiment concerns the target T2, recombinant human TYRO3 (Homo sapiens, UniProt Q06418).
T2 construct: purchased Invitrogen
T2 sequence (Q06418 41-890): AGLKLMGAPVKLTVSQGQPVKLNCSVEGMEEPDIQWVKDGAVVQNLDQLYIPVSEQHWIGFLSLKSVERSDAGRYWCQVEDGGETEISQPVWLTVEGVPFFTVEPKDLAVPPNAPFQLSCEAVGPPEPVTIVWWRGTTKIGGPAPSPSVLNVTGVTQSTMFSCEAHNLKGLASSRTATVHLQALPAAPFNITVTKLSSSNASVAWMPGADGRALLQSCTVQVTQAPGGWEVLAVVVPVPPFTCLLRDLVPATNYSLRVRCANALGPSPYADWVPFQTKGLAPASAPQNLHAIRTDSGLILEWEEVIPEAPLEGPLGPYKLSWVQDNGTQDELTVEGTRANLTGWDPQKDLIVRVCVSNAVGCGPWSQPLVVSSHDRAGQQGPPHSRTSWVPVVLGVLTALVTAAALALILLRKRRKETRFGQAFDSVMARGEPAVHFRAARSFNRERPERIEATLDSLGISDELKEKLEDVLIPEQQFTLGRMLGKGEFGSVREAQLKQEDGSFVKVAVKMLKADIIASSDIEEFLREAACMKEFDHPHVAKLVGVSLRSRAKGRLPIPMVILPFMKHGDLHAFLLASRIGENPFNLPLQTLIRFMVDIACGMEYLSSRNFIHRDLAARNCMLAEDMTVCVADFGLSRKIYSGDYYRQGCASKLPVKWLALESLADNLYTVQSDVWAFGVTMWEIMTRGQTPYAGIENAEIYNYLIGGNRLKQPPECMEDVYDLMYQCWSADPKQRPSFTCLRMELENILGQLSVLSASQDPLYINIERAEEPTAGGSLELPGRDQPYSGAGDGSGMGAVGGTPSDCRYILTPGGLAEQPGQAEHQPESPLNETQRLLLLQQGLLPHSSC
In words: HTRF KinEASE-TK biochemical potency, TYRO3. The conditions noted are these: 1 nM TYRO3, 700 μM ATP. Here is the method:
as §1
In general terms: In TR-FRET formats the signal depends on donor and acceptor labels being close together.

In patent publication US20240226115A1, “AXL INHIBITOR COMPOUNDS” (ARCUS BIOSCIENCES, INC., priority 2021, published 2024) one finds IC50 data, which are given here for three compounds.

SMILES strings stand for the structures. Some results are limits rather than exact numbers.

Regarding `O=C1NCCOc2cc(-c3n[nH]c4ncc(-c5cc(Cl)c6c(c5)CCN(C5CCCC5)C6)cc34)ccc21` [Example 8, 8-[5-(8-Chloro-2-cyclopentyl-1,2,3,4-tetrahydroisoquinolin-6-yl)-1H-pyrazolo[3,4-b]pyridin-3-yl]-2,3,4,5-tetrahydro-1,4-benzoxazepin-5-one], the half-maximal inhibitory concentration (IC50) (commonly the midpoint of a concentration-inhibition curve) at Axl [1] was above 1000 nM; at Axl [2], 100 to 1000 nM.

In the case of `FC1(F)Oc2ccc(-c3n[nH]c4ncc(-c5ccc6c(c5)CCN(C5CCCC5)CC6)cc34)cc2O1` [Example 14, 3-Cyclopentyl-7-(3-(2,2-difluorobenzo[d][1,3]dioxol-5-yl)-1H-pyrazolo[3,4-b]pyridin-5-yl)-2,3,4,5-tetrahydro-1H-benzo[d]azepine], the half-maximal inhibitory concentration (IC50) at Axl [1] and against Axl [2] was above 1000 nM each time.

Regarding `CS(=O)(=O)N1CCc2ccc(-c3cnc4[nH]nc(-c5ccc6c(c5)OCCNC6=O)c4c3)cc2CC1` [Example 18, 8-[5-(3-Methanesulfonyl-2,3,4,5-tetrahydro-1H-3-benzazepin-7-yl)-1H-pyrazolo[3,4-b]pyridin-3-yl]-2,3,4,5-tetrahydro-1,4-benzoxazepin-5-one], the results for the IC50 at Axl [1], at recombinant human TYRO3 and against Axl [2] were above 1000 nM, below 100 nM and below 100 nM, respectively.
